We go through one molecule from patent US20210301349A1, “COMPOSITIONS AND METHODS FOR TREATING A TUMOR SUPPRESSOR DEFICIENT CANCER” (BETH ISRAEL DEACONESS MEDICAL CENTER, INC., priority 2016, published 2021).

“And” between values parts separate entries of the source, which are not always exact repeats. Equal values may be shown once. “Also recorded” adds a separate entry of the source.

Type in all cases: in vivo, mouse
Experiment [1] concerns Pten^pc−/−; Pml^pc−/− prostate tumors. Nature of the experiment: Tumor growth by MRI in Pten^pc−/−; Pml^pc−/− mice under CXCR2 antagonist treatment. The settings on record: for tumor volume: Pten-Pml, individual mice; for tumor growth: Pten^pc−/−, Pml^pc−/− mice, versus vehicle. How it is done:
(§1) Mice were allocated at random to experimental groups and studies were performed in an unblended manner. For treatment with the CXCR2 antagonist, SB225002 (Cayman Chemical #13336) was dissolved in DMSO (10 mg/ml) and diluted in vehicle (0.9% NaCl, 0.3% Tween 80) for in vivo administration. Mice (4 months of age) were treated daily for 10 days by intraperitoneal injection (5 mg/kg) and prostate tumor tissue (anterior lobes) was subjected to Flow Cytometry and histological analysis. For MRI analysis, mice (4 months of age) were treated daily for 21 days (Pten^pc−/−; Zbtb7a^pc−/−), for 14 days (Pten^pc−/−; Trp53^pc−/−) or for 14 days (Pten^pc−/−; Pml^pc−/−) by intraperitoneal injection (5 mg/kg). For depletion of Gr-1+/CD11b+ cells, Ly6G-depletion antibody (1A8, BioXcell) and control Rat IgG2a antibody (BioXcell) were diluted in phosphate-buffered saline (PBS) for in vivo administration. Mice (4 months of age) were treated every other day for 10 days by intraperitoneal injection (200-300 μg/mouse). InVivoMAb anti-mouse Ly6G/Ly6C (Gr-1) antibody, clone RB6-8C5 (BE0075, BioXcell), and control Rat IgG2b antibody (BE0090, BioXcell) were diluted in PBS and Pten^pc−/−; Trp53^pc−/− mice were treated every other day for 14 days by intraperitoneal injection (200 μg/mouse). For neutralization of CXCL5, anti-Mouse CXCL5 antibody (Leinco Technologies) and control Rat IgG2a antibody (BioXcell) were diluted in PBS and injected every other day for 21 days by intraperitoneal injection (20 μg/mouse). Tumor volume quantification was performed by using VivoQuant and Image J software. All mouse prostate MRI imaging analysis was performed at Small Animal Imaging Core at BIDMC and acquired on an ASPECT Model M2 1T tabletop scanner.

Experiment [2] deals with Pten^pc−/−; Zbtb7a^pc−/− prostate tumors. Nature of the experiment: Tumor growth by MRI in Pten^pc−/−; Zbtb7a^pc−/− mice under drug or antibody treatment. Particulars: for tumor volume: Pten-Zbtb7a, individual mice. The procedure:
as §1

The test system of experiment [3] is Pten^pc−/−; Trp53^pc−/− tumors (anterior prostate lobes). The experiment can be described thus: Histological analysis of treated Pten^pc−/−; Trp53^pc−/− tumors. Particulars: Trp53^pc−/− mice, 10 days of i.p. treatment, versus vehicle. How it is done:
(§2) Mice were allocated at random to experimental groups and studies were performed in an unblended manner. For treatment with the CXCR2 antagonist, SB225002 (Cayman Chemical #13336) was dissolved in DMSO (10 mg/ml) and diluted in vehicle (0.9% NaCl, 0.3% Tween 80) for in vivo administration. Mice (4 months of age) were treated daily for 10 days by intraperitoneal injection (5 mg/kg) and prostate tumor tissue (anterior lobes) was subjected to Flow Cytometry and histological analysis. For MRI analysis, mice (4 months of age) were treated daily for 21 days (Pten^pc−/−; Zbtb7a^pc−/−), for 14 days (Pten^pc−/−; Trp53^pc−/−) or for 14 days (Pten^pc−/−; Pml^pc−/−) by intraperitoneal injection (5 mg/kg). […] Tumor volume quantification was performed by using VivoQuant and Image J software. […]
(§3) For western blotting, cell lysates were prepared by homogenizing tumor tissue with NP40 Buffer (Boston Bioproducts) supplemented with protease (Roche) and HALT phosphatase inhibitor cocktails (Thermo Scientific) and subsequently subjected to SDS-Gel separation (Invitrogen) and western blotting. […] Western blots were quantified using Image J software. […] Embedding and hematoxylin and eosin staining of sections were performed by the Histology Core at BIDMC and analyzed by a pathologist. […]

Experiment [4] has as its system NFκB signaling. The experiment can be described thus: Western blot and expression analysis of Pten^pc−/−; Zbtb7a^pc−/− tumors treated with CXCR2 antagonist. The settings on record: versus vehicle. The procedure:
as §2, §3
In general terms: In western blotting, separated proteins are transferred to a membrane and probed.

Setting [5] is: CXCR2i (SB225002 5 mg/kg i.p. daily), row 0 = day 0 baseline, MRI.

As for `O=C(Nc1ccc([N+](=O)[O-])cc1O)Nc1ccccc1Br` [SB225002], the tumor volume in experiment [1] (setting [5]) is 45.996 mm3 and 37.426 mm3; in experiment [1] (CXCR2i, row 1 (weekly MRI)) it was 53.662 mm3 and 43.164 mm3; in experiment [1] (CXCR2i, row 2 (weekly MRI, 2 weeks on treatment)), 56.567 mm3 and 45.972 mm3; in experiment [2] (setting [5]), 54.248 mm3 and 79.3701 mm3 and 59.2774 mm3; in experiment [2] (CXCR2i, row 1 (weekly MRI)), 44.3115 mm3 and 67.9688 mm3 and 65.0879 mm3; in experiment [2] (CXCR2i, row 2 (weekly MRI)), 41.1865 mm3 and 68.9697 mm3 and 58.6914 mm3. The tumor volume in experiment [2] (CXCR2i, row 3 (weekly MRI, 3 weeks on treatment)) is 42.1142 mm3 and 71.3379 mm3 and 66.0889 mm3. Besides, the tumor growth result in experiment [1] is “did not show any significant response”; in experiment [1] (listed as CXCR2i) it was “did not respond”; in experiment [2] (Pten^pc−/−, Zbtb7a^pc−/− mice, versus vehicle or control IgG), “significantly suppressed the tumor growth; also recorded: significant inhibition of tumor growth”. Moreover, the “tumor burden by histological analysis” value is reported as “reduced tumor burden” in experiment [3] and “significantly diminished tumor involvement” in experiment [3] (listed as CXCR2 inhibitor). Moreover, in experiment [4] (Pten^pc−/−, Zbtb7a^pc−/− prostate tumors), the “expression of CXCL5” value is “elevated expression of CXCL5”. Also, in experiment [4] (western blot of Pten^pc−/−, Zbtb7a^pc−/− tumors), the “IκBα protein level (normalized with β-actin)” value was “increased IκBα protein levels”.
